Structures can show the parent of a compound that is named as a salt. Non-standard residues stand in square brackets, D forms with d. Residues, ends and D or L forms follow the SMILES beside them. *: point of attachment. Pro(4R-OPh) = O=C(O)[C@@H]1C[C@@H](Oc2ccccc2)CN1; Hyp = O=C(O)[C@@H]1C[C@@H](O)CN1; Bn = c1ccc(C*)cc1; Allyl = C=CC*
System: Human Peripheral Blood Mononuclear Cells (PBMC) or Enriched Adherent Mononuclear Cells
Assay: Cell assay: IL-1β assay with human PBMC or enriched adherent mononuclear cells
Assay type: cell-based
Details: LPS-stimulated cells, mature IL-1β in supernatant by ELISA
Source text: IL-1β Assay with a Mixed Population of Human Peripheral Blood Mononuclear Cells (PBMC) or Enriched Adherent Mononuclear Cells
Processing of pre-IL-1S by ICE can be measured in cell culture using a variety of cell sources. Human PBMC obtained from healthy donors provides a mixed population of lymphocyte subtypes and mononuclear cells that produce a spectrum of interleukins and cytokines in response to many classes of physiological stimulators. Adherent mononuclear cells from PBMC provides an enriched source of normal monocytes for selective studies of cytokine production by activated cells.
An initial dilution series of test compound in DMSO or ethanol is prepared, with a subsequent dilution into RPMI-10% FBS media (containing 2 mM L-glutamine, 10 mM HEPES, 50 U and 50 ug/ml pen/strep) respectively to yield drugs at 4× the final test concentration containing 0.4% DMSO or 0.4% ethanol. The final concentration of DMSO is 0.1% for all drug dilutions. A concentration titration which brackets the apparent Ki for a test compound determined in an ICE inhibition assay is generally used for the primary compound screen.
We generally test 5-6 compound dilutions and have performed the cellular component of the assay in duplicate, with duplicate ELISA determinations on each cell culture supernatant.
Buffy coat cells isolated from one pint human blood (yielding 40-45 ml final volume plasma plus cells) are diluted with media to 80 ml and LeukoPREP separation tubes (Becton Dickinson) are each overlaid with 10 ml of cell suspension. After 15 min centrifugation at 1500-1800×g, the plasma/media layer is aspirated and then the mononuclear cell layer is collected with a Pasteur pipette and transferred to a 15 ml conical centrifuge tube (Corning). Media is added to bring the volume to 15 ml, gently mix the cells by inversion and centrifuge at 300×g for 15 min. Resuspend the PBMC pellet in a small volume of media, count cells and adjust to 6×10^6 cells/ml.
For the cellular assay, add 1.0 ml of the cell suspension to each well of a 24-well flat bottom tissue culture plate (Corning), 0.5 ml test compound dilution and 0.5 ml LPS solution (Sigma #L-3012; 20 ng/ml solution prepared in complete RPMI media; final LPS concentration 5 ng/ml). The 0.5 ml additions of test compound and LPS are usually sufficient to mix the contents of the wells. Three control mixtures are run per experiment, with either LPS alone, solvent vehicle control, and/or additional media to adjust the final culture volume to 2.0 ml. The cell cultures are incubated for 16-18 hr at 37° C. in the presence of 5% CO2.
At the end of the incubation period, cells are harvested and transferred to 15 ml conical centrifuge tubes. After centrifugation for 10 min at 200×g, supernatants are harvested and transferred to 1.5 ml Eppendorf tubes. It may be noted that the cell pellet may be utilized for a biochemical evaluation of pre-IL-1S and/or mature IL-1β content in cytosol extracts by western blotting or ELISA with pre-IL-1β specific antisera.
PBMC are isolated and prepared as described above. Media (1.0 ml) is first added to wells followed by 0.5 ml of the PBMC suspension. After a one hour incubation, plates are gently shaken and nonadherent cells aspirated from each well. Wells are then gently washed three times with 1.0 ml of media and final resuspended in 1.0 ml media. The enrichment for adherent cells generally yields 2.5−3.0×10^5 cells per well. The addition of test compounds, LPS, cell incubation conditions and processing of supernatants proceeds as described above.
We have used Quantikine kits (R&D Systems) for measurement of mature IL-1β. Assays are performed according to the manufacturer's directions. Mature IL-1β levels of about 1-3 ng/ml in both PBMC and adherent mononuclear cell positive controls are observed. ELISA assays are performed on 1:5, 1:10 and 1:20 dilutions of supernatants from LPS-positive controls to select the optimal dilution for supernatants in the test panel.

[1] = Homo sapiens, PBMC, Example 4 table
[2] = Homo sapiens, PBMC, Example 6 table
[3] = Homo sapiens, PBMC, Example 2 table

| Structure (SMILES) | IC50 [1] [µM] | IC50 [2] [µM] | other results |
| --- | --- | --- | --- |
| CC(C)[C@H](NC(=O)OCc1ccccc1)C(=O)N[C@@H](C)C(=O)N[C@H](CC(=O)O)C(=O)COCc1c(Cl)cccc1Cl (mixture of isomers) [Compound 84a, (R,S)N-[N-(Phenylmethyloxy)carbonyl-valinyl-alaninyl]-3-amino-5-(2,6-dichlorophenylmethyloxy)-4-oxo-pentanoic acid] | 3.3 | – | – |
| CC(C(=O)N[C@H](C=O)CC(=O)O)N1CCN(Cc2ccccc2)C[C@H](NC(=O)OCc2ccccc2)C1=O (mixture of isomers) [Compound 114a, 3(S)-{2(R,S)-[4-Benzyl-7-oxo-6(S)-(N-benzyloxycarbonylamino)-[1,4]diazepan-1-yl]-propionylamino}-4-oxo-butyric acid trifluoroacetic acid salt] | – | 3.8 | – |
| CC(C(=O)N[C@H](C=O)CC(=O)O)N1CCN(C(=O)CCc2ccccc2)C[C@H](NC(=O)CCc2ccccc2)C1=O (mixture of isomers) [Compound 115, 4-Oxo-3(S)-{2(R,S)-[7-oxo-4-(3-phenyl-propionyl)-6(S)-(3-phenyl-propionylamino)-[1,4]diazepan-1-yl]-propionylamino}-butyric acid] | – | 6 | – |
| C[C@H](NC(=O)c1nc(CCCc2ccccc2)c[nH]1)C(=O)N[C@H](C=O)CC(=O)O [Compound 20d, (3S)3-{N-[4-(3-Phenylpropyl)imidazole-2-carbonyl]-L-alaninyl}amino-4-oxo-butanoic acid] | 6.2 | – | – |
| COc1ccc(CCCc2cnc(C(=O)N3C[C@H](Oc4ccccc4)C[C@H]3C(=O)N[C@H](C=O)CC(=O)O)[nH]2)cc1 [Compound 22e, 3(S)-[(1-{5-[3-(4-Methoxyphenyl)propyl]-1H-imidazole-2-carbonyl}-4(R)-phenoxypyrrolidine-2(S)-carbonyl)amino]-4-oxobutanoic acid] | – | > 20 | – |
| C[C@H](NC(=O)c1cnc(CCc2ccccc2)[nH]1)C(=O)N[C@H](C=O)CC(=O)O [Compound 33a, (3S)3-{N-[2-(2-Phenylethyl)imidazole-4-carbonyl]-L-alaninyl}amino-4-oxobutanoic acid] | 25 | – | IC50 [3]: 25 µM |
| C[C@H](NC(=O)c1cnc(Cc2ccccc2)[nH]1)C(=O)N[C@H](C=O)CC(=O)O [Compound 33c, (3S)3-[N-(2-Benzylimidazole-4-carbonyl)-L-alaninyl]amino-4-oxobutanoic acid] | 20 | – | IC50 [3]: 20 µM |
| C[C@@H](C(=O)N[C@H](C=O)CC(=O)O)n1cccc(NC(=O)CCc2ccccc2)c1=O [Compound 54a] | 2.7 | – | IC50 (Example 2 table): 2 to 4 µM |
| O=C[C@H](CC(=O)O)NC(=O)Cn1c(Cc2ccccc2)ccc(NC(=O)CCc2ccccc2)c1=O [Compound 54b, 3(S)3-(6-Benzyl-1,2-dihydro-2-oxo-3-(3-phenylpropionyl)amino-1-pyridyl)acetylamino-4-oxobutanoic acid] | 9.1 | 20 | – |
| C=CCO[C@@H]1C[C@@H](C(=O)N[C@H](C=O)CC(=O)O)N(C(=O)[C@@H](NC(=O)[C@H](Cc2ccc(O)cc2)NC(C)=O)C(C)C)C1 [Compound 85, N-(N-Acetyl-tyrosinyl-valinyl-(4(R)-allyloxyprolinyl))-3(S)-amino-4-oxobutanoic acid] (Ac-YV[Hyp](Allyl)D-aldehyde) | – | 9.8 | – |
| O=C(O)C[C@H](NC(=O)[C@@H]1CCc2ncc(NC(=O)CCc3ccccc3)c(=O)n21)C(=O)COC(=O)c1c(Cl)cccc1Cl [Compound 102a, 2,6-Dichloro-benzoic acid 4-carboxy-2-oxo-(3S)-{[4-oxo-3-(3-phenyl-propionylamino)-4,6,7,8-tetrahydro-pyrrolo[1,2-a]pyrimidine-(6S)-carbonyl]-amino}-butyl ester] | – | 4 | – |
| C[C@H](NC(=O)CN1C(=O)[C@@H](NC(=O)CCc2ccccc2)CN(C(=O)CCc2ccccc2)c2ccccc21)C(=O)C(=O)O [Compound 106b, 2-Oxo-3(S)-{2-[2-oxo-5-(3-phenylpropionyl)-3(S)-(3-phenyl-propionyl-amino)-2,3,4,5-tetrahydrobenzo[b][1,4]diazepin-1-yl]acetylamino}butyric acid] | – | 2.9 | – |
| O=C(O)C[C@H](NC(=O)CN1C(=O)[C@@H](NC(=O)CCc2ccccc2)CN(C(=O)CCc2ccccc2)c2ccccc21)C(=O)COC(=O)c1c(Cl)cccc1Cl [Compound 108a, 2,6-Dichlorobenzoic acid 4-carboxy-2-oxo-3(S)-{2-[2-oxo-5-(3-phenylpropionyl)-3(S)-(3-phenylpropionylamino)-2,3,4,5-tetrahydrobenzo[b][1,4]diazepin-1-yl]acetylamino}butyl ester] | – | 17.5 | – |
| C[C@@H](C(=O)N[C@@H](CC(=O)O)C(=O)COC(=O)c1c(Cl)cccc1Cl)n1cccc(NC(=O)CCc2ccccc2)c1=O [Compound 130] | – | 1.2 | – |
| O=C(O)C[C@H](NC(=O)[C@@H]1CCCN2C(=O)CC[C@H](NC(=O)CCc3ccccc3)C(=O)N12)C(=O)COC(=O)c1c(Cl)cccc1Cl [Compound 136] | – | 1 | – |
| CS(=O)(=O)N[C@H]1CCC(=O)N2CCC[C@@H](C(=O)N[C@@H](CC(=O)O)C(=O)COC(=O)c3c(Cl)cccc3Cl)N2C1=O [Compound 138] | – | 0.375 | – |
| C[C@H](NC(=O)c1ncc[nH]1)C(=O)N[C@@H](CC(=O)O)C(=O)COC(=O)c1c(Cl)cccc1Cl [Compound 142] | – | 1.75 | – |
| CC(=O)N[C@@H](Cc1ccc(O)cc1)C(=O)N[C@H](C(=O)N1C[C@H](OCc2ccccc2)C[C@H]1C(=O)N[C@H](C=O)CC(=O)O)C(C)C [Compound K, N-[N-Acetyl-tyrosinyl-valinyl-(4-benzyloxy)prolinyl]-3-amino-4-oxobutanoic acid] (Ac-YV[Hyp](Bn)D-aldehyde) | – | – | IC50 [3]: 2 to 11 µM |
| CC(=O)N[C@@H](Cc1ccc(O)cc1)C(=O)N[C@H](C(=O)N1C[C@H](Oc2ccccc2)C[C@H]1C(=O)N[C@H](C=O)CC(=O)O)C(C)C [I, N-(N-Acetyl-tyrosinyl-valinyl-(4-phenoxyprolinyl))-3-amino-4-oxobutanoic acid] (Ac-YV[Pro(4R-OPh)]D-aldehyde) | – | – | IC50 [3]: 2.6 µM |
| CC(=O)N[C@@H](Cc1ccc(O)cc1)C(=O)N[C@H](C(=O)N1C[C@H](O)C[C@H]1C(=O)N[C@H](C=O)CC(=O)O)C(C)C [J, N-[N-Acetyl-tyrosinyl-valinyl-(4-hydroxyprolinyl)]-3-amino-4-oxobutanoic acid] (Ac-YV[Hyp]D-aldehyde) | – | – | IC50 [3]: 5 to 7 µM |
